Source: patent US7238689B2, “Isoxazoline derivative and herbicide comprising the same as active ingredient” (Ihara Chemical Industry Co., Ltd., priority 2001, dated 2007)

Experiments:
Type in all cases: in vivo
Design in all cases: scale not given here
[1] = test system: Echinochloa oryzicola Vasing; assay: Herbicidal effect by paddy field soil treatment; conditions: wettable powder, active ingredient 1000 g/ha, examined at the 21st day from the treatment
Protocol: (§1) A paddy field soil was filled in a plastic pot of 100 cm^2 and subjected to puddling. Then, seeds of Echinochloa oryzicola Vasing and Monochoria vaginalis (Murm. f.) Presl var. plantaginea (Roxb.) Solms-Laub. were sowed and water was filled in a depth of 3 cm. Next day, wettable powders produced in accordance with the Formulation 1 were diluted with water and dropped on the water surface. The application amount of each wettable powder was 1,000 g per 1 hectare in terms of the active ingredient. Then, breeding was made in a greenhouse, and the herbicidal effect of each wettable powder was examined at the 21st day from the treatment in accordance with the standard shown in Table 21.

[2] = test system: Monochoria vaginalis (Murm. f.) Presl var. plantaginea (Roxb.) Solms-Laub.; assay: Herbicidal effect by paddy field soil treatment; conditions: wettable powder, active ingredient 1000 g/ha, examined at the 21st day from the treatment
Protocol: as §1

[3] = test system: Echinochloa crus-galli (L.) Beauv. var. crusgalli; assay: Herbicidal effect by upland field soil treatment; conditions: active ingredient 1000 g/ha, examined at 21st day from treatment
From the text: (§2) An upland field soil was filled in a plastic pot of 80 cm^2. Seeds of Echinochloa crus-galli (L.) Beauv. var. crusgalli and Setaria viridis (L.) Beauv. were sowed, followed by covering with the same soil. […] Then, breeding was made in a greenhouse, and the herbicidal effect of each wettable powder was examined at the 21st day from the treatment in accordance with the standard shown in Table 21.

[4] = test system: Setaria viridis (L.) Beauv.; assay: Herbicidal effect by upland field soil treatment; conditions: active ingredient 1000 g/ha, examined at 21st day from treatment
From the text: as §2

Structure (SMILES) | Herbicidal effect index, Echinochloa oryzicola Vasing [1] | Herbicidal effect index, Monochoria vaginalis (Burm. F.) Presl var. plantaginea (Roxb.) Solms-Laub. [2] | herbicidal effect (index per standard of Table 21), Echinochloa curs-galli (L.) Beauv. Var. crus-galli [3] | herbicidal effect (index per standard of Table 21), Setaria viridis (L.) Beauv. [4]
CC1(C)CC(S(=O)(=O)Cc2c(Cl)nn(CS(C)(=O)=O)c2C(F)(F)F)=NO1 [3-0131] | 5 | 5 | 5 | 5
CC1(C)CC(S(=O)(=O)Cc2c(C(F)(F)F)nn(CS(C)(=O)=O)c2Cl)=NO1 [3-0130] | 5 | 5 | 5 | 5
CCOCCn1nc(Cl)c(CS(=O)(=O)C2=NOC(C)(C)C2)c1C(F)(F)F [3-0127] | 5 | 5 | 5 | 5
Cn1nc(Cl)c(CS(=O)(=O)C2=NOC(C)(C)C2)c1C(F)(F)F [3-0040] | 5 | 5 | 5 | 5
Cc1c(CS(=O)(=O)C2=NOC(C)(C)C2)oc2ccccc12 [10-0017] | 5 | 5 | 5 | 5
Cn1nc(C(F)(F)F)c(CS(=O)(=O)C2=NOC(C)(C)C2)c1OC(C)(C)C [3-0047] | 5 | 5 | 5 | 5
Cc1cc2cccc(CS(=O)(=O)C3=NOC(C)(C)C3)c2o1 [10-0013] | 5 | 5 | 5 | 5
CCOc1c(C)nn(-c2ccccc2)c1CS(=O)(=O)C1=NOC(C)(C)C1 [5-0005] | 5 | 5 | 5 | 4
CC1(C)CC(S(=O)(=O)Cc2c(C(F)(F)F)nn(-c3ncccn3)c2Cl)=NO1 [3-0173] | 5 | 5 | 5 | 5
CC1(C)CC(S(=O)(=O)Cc2sc3ccccc3c2Cl)=NO1 [10-0003] | 5 | 5 | 5 | 5
CSCn1nc(Cl)c(CS(=O)(=O)C2=NOC(C)(C)C2)c1C(F)(F)F [3-0129] | 5 | 5 | 5 | 5
COc1cc(OC)nc(-n2nc(C(F)(F)F)c(CS(=O)(=O)C3=NOC(C)(C)C3)c2Cl)n1 [3-0174] | 5 | 5 | 5 | 5
